Measurements: patent US20230219965A1 (KSQ Therapeutics, Inc., priority 2020, published 2023)
Read-outs that look alike come from different tables or passages of the source.

Legend:
[1] = target: USP1/UAF1 enzyme (Homo sapiens, UniProt O94782); assay: USP1/UAF1 deubiquitination assay (ubiquitin-rhodamine 110 substrate); format: biochemical; conditions: read-out: USP1 IC50 (Ub-Rho)
In short: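 Cleavage of 150 nM ubiquitin-rhodamine 110 by 0.05 nM USP1/UAF1 was followed as fluorescence (Ex480/Em540, kinetic, 30 min) in Tris-HCl pH 7.8 buffer with EDTA, BSA, DTT and Tween-20. Compounds, top 10 μM, were preincubated with enzyme 10 min; % inhibition against no-enzyme and DMSO wells gave four-parameter IC50s.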

[2] = test system: Ub-PCNA levels in the nucleus of ES2 cells (USP1 activity); assay: ES2 Ub-PCNA immunofluorescence (IF) assay; format: cell-based; conditions: ES2 cells, 3 hours, Ub-PCNA immunofluorescence, read-out: USP1 IC50 (Ub-PCNA)
Experimental: USP1 is a deubiquitinating enzyme that removes ubiquitin from mono-ubiquitinated Proliferating Cell Nuclear Antigen (Ub-PCNA). The levels of Ub-PCNA in the nucleus of cells can be used to assess the activity of USP1. An immunofluorescence assay can be established to monitor Ub-PCNA levels in the ovarian cancer cell line, ES2.
An assay can be performed by first plating 5000 ES2 cells per well in black 96 well plates (Corning #3904) and then incubating overnight at 37° C. and 5% CO2. Compounds, resuspended in DMSO, can be added to the cells, to a final DMSO concentration of 0.3%. Plates can be incubated at 37° C. and 5% CO2 for 3 hours.
Cells can be then fixed and stained by first removing the media from each plate and fixing the cells with −20° C. methanol for 5 minutes at room temperature. Fixation plates can be washed with Tris buffered saline with tween (Boston Bioproducts #IBB-855) 5 times for 5 minutes each. Plates can be blocked for 1 hour with 50 μl of Odyssey blocking buffer (Licor #327-50000) at room temperature with rocking. Block can be removed from all wells and 50 μl of primary antibody was added to each well. Ub-PCNA ab (Cell Signaling Technology #13439) can be diluted at 1:400 in Odyssey blocking buffer. Plates can be sealed and incubated overnight at 4° C. Primary antibodies can be removed from the plates and plates can be washed with Tris buffered saline with tween 5 times for 5 minutes. Plates can be stained for 1 hour at room temperature with rocking with 50 μl of secondary antibodies diluted 1:10,000 in Odyssey blocking buffer at room temperature (anti-rabbit Alexa 488). Antibodies can be removed from the plates and plates can be washed with Tris buffered saline with tween 3 times for 5 minutes. Plates can be washed once with DAPI (Chemometec #910-3012) stain diluted 1:5000 (Stock solution of 500 μg/ml) in tris buffered saline with tween for 5 minutes. DAPI stain can be removed and plates can be washed one additional time for 5 minutes with tris buffered saline with tween. Wash can be removed from the plate and 100 μl tris buffered saline with tween can be added back to all wells, Plates can be sealed with Foil seals or black plate seals and plates can be stored at 4° C. until they can be imaged.
Imaging of the plates can be performed by first locating the nuclei using the DAPI stain. A mask can be created by drawing a circle slightly smaller than each nucleus. Ub-PCNA intensities can be measured for each individual nucleus counted. A histogram of all Ub-PCNA nuclear intensities measured in untreated wells can be generated and a 95% cutoff can be established. This 95% cutoff can be used to determine the number of Positive cells that have Ub-PCNA values higher than the 95% cutoff. The number of positive cells can be expressed as a percentage by dividing by the total number of cells in the well. This percent positive value can be used to graph all data and to determine AC50 values.
USP1 is a deubiquitinating enzyme that removes ubiquitin from mono-ubiquitinated
Proliferating Cell Nuclear Antigen (Ub-PCNA). The levels of Ub-PCNA in the nucleus of cells was used to assess the activity of USP1. An immunofluorescence assay was established to monitor Ub-PCNA levels in the ovarian cancer cell line, ES2.
This assay was performed by first plating 5000 ES2 cells per well in black 96 well plates (Corning #3904) and then incubated overnight at 37° C. and 5% CO2. Compounds, resuspended in DMSO, were added to the cells, to a final DMSO concentration of 0.3%. Plates were incubated at 37° C. and 5% CO2 for 3 hours.
Cells were then fixed and stained by first removing the media from each plate and fixing the cells with −20° C. methanol for 5 minutes at room temperature. Following fixation plates were washed with Tris buffered saline with tween (Boston Bioproducts ABB-855) 5 times for 5 minutes each. Plates were blocked for 1 hour with 50μ.1 of Odyssey blocking buffer (Licor #327-50000) at room temperature with rocking. […]

[3] = ADME solubility determination in PBS at pH 2.0 and pH 7.4; format: physicochemical; conditions: for solubility at 24 h: phosphate buffered saline, 25 °C, thermodynamic from solid
Experimental: Certain Compounds of the Disclosure were assessed for ADME solubility at pH 2.0 and pH 7.4.
Stock solutions were prepared by adding each compound to DMSO at a concentration of 10 mM. Samples were prepared by adding 50 μL of each stock solution to separate vials. The vials were loaded onto a 96-well rack and dried. 500 μL of Phosphate Buffered Saline (PBS) pH 7.4 or PBS pH 2.0 were added into each vial. The vials were then shaken at 25° C. and 1,100 rpm for 24 hours.
After 24 hours, the vials were centrifuged at 3220 G and 25° C. for 30 minutes. The supernatant fluid was analyzed by LC-MS/MS against a standard of known concentration. The solubility of each sample was then calculated using the equation below: […]
where DF is the dilution factor.

[4] = Liver microsomal metabolic stability, rat liver microsomes (RLM); conditions: rat, liver microsomes, t1/2 (min) in RLM, 1 μM compound, 1 mg/mL microsomes, NADPH
[5] = Liver microsomal metabolic stability, human liver microsomes (HLM); conditions: human, liver microsomes
[6] = pH 2, aqueous buffer, PBS pH 2.0, 25° C., read-out: Solubility at pH 2.0
[7] = pH 7.4, aqueous buffer, PBS pH 7.4, 25° C., read-out: Solubility at pH 7.4

Chain of USP1/UAF1 enzyme (O94782 whole entry): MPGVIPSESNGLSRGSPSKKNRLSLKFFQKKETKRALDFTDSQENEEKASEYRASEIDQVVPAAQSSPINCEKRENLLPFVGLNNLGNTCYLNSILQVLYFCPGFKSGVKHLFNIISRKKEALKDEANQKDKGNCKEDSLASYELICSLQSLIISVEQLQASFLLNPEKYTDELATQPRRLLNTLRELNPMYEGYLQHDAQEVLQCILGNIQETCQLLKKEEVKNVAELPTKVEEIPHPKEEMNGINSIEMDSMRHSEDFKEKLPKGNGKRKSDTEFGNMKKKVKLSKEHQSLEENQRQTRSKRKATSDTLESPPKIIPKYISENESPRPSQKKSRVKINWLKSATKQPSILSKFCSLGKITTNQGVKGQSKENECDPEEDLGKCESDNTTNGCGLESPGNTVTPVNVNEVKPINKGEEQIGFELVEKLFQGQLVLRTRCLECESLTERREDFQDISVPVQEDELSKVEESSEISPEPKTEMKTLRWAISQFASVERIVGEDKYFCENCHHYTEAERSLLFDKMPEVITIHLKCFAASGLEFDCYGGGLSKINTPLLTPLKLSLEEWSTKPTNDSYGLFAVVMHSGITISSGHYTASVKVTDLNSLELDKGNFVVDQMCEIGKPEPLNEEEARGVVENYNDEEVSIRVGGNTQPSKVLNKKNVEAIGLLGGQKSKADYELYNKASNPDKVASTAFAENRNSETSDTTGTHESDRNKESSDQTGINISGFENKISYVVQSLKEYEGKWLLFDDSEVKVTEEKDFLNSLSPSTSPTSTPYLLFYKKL
Chain of USP1/UAF1 enzyme (Q8TAF3 whole entry partner): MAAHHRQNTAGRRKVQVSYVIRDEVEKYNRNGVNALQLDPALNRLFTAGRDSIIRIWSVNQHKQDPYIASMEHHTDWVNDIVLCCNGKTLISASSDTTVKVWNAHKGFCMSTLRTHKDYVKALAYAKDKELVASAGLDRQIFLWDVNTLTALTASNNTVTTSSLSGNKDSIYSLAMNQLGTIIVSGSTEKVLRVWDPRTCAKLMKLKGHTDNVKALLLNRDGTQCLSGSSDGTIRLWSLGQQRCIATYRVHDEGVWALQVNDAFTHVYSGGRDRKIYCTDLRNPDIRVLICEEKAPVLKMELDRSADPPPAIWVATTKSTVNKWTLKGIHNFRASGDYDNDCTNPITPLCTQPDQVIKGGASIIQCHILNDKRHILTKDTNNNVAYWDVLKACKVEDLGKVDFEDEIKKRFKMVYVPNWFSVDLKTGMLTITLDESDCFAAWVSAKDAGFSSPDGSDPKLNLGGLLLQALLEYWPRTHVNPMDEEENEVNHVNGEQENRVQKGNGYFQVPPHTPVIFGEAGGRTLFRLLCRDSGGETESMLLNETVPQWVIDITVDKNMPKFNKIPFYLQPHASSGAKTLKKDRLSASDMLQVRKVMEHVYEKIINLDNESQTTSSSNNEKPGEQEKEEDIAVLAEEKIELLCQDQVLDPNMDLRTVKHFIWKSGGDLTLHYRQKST

Compound | IC50 [1] [nM] | IC50 ([2]; Homo sapiens, ES-2) [nM] | solubility at 24 h [3, 6] [µM] | solubility at 24 h [3, 7] [µM] | half-life at 1 μM [4] [min] | half-life at 1 μM [5] [min] | IC50 [2] [nM] | Solubility at pH 2.0 (μM) ([3]; PBS pH 2.0, 25° C., 24 hours) | Solubility at pH 7.4 (μM) ([3]; PBS pH 7.4, 25° C., 24 hours)
COc1ncnc(C2CC2)c1-c1cc2n(n1)CCC(C)N2Cc1ccc(-c2nc(C(F)(F)F)cn2C)cc1 (racemic) [Example 48, 2-(4-cyclopropyl-6-methoxypyrimidin-5-yl)-5-methyl-4-(4-(1-methyl-4-(trifluoromethyl)-1H-imidazol-2-yl)benzyl)-4,5,6,7-tetrahydropyrazolo[1,5-α]pyrimidine] | < 100 | < 100 | ≥ 10 | ≥ 10 | < 25 | < 25 | – | – | –
COc1ncnc(C2CC2)c1-c1cc2n(n1)C(C)CCN2Cc1ccc(-c2nc(C(F)(F)F)cn2C)cc1 (racemic) [Example 51, 2-(4-cyclopropyl-6-methoxypyrimidin-5-yl)-7-methyl-4-(4-(1-methyl-4-(trifluoromethyl)-1H-imidazol-2-yl)benzyl)-4,5,6,7-tetrahydropyrazolo[1,5-α]pyrimidine] | < 100 | < 100 | ≥ 10 | < 10 | < 25 | < 25 | – | – | –
Cc1cnn(C(C)C)c1-c1cc2n(n1)CCCN2Cc1ccc(-c2nc(C(F)(F)F)cn2C)cc1 [Example 47, 2-(1-isopropyl-4-methyl-1H-pyrazol-5-yl)-4-(4-(1-methyl-4-(trifluoromethyl)-1H-imidazol-2-yl)benzyl)-4,5,6,7-tetrahydropyrazolo[1,5-α]pyrimidine] | < 100 | – | – | – | – | – | < 100 | ++ (“++” indicates 10 μM or greater) | + (“+” indicates less than 10 μM)
CCn1cc(C(F)(F)F)nc1-c1ccc(CN2C(=O)CCn3nc(-c4c(Cl)cnn4C(C)(C)COC)cc32)cc1F [Example 162] | < 100 | 100 to 500 | ≥ 10 | ≥ 10 | < 25 | – | – | – | –
CCn1cc(C(F)(F)F)nc1-c1ccc(CN2C(=O)CCn3nc(-c4c(Cl)cnn4C(C)C)c(C#N)c32)cc1 [Example 223, 2-(4-chloro-1-isopropyl-1H-pyrazol-5-yl)-4-(4-(1-ethyl-4-(trifluoromethyl)-1H-imidazol-2-yl)benzyl)-5-oxo-4,5,6,7-tetrahydropyrazolo[1,5-α]pyrimidine-3-carbonitrile] | < 100 | – | < 10 | < 10 | > 25 | < 25 | – | – | –
CC(C)n1ncc(Cl)c1-c1cc2n(n1)CC(O)C(=O)N2Cc1ccc(-c2nc(C(F)(F)F)cn2C)cc1 (stereo not drawn) [Example 231, 2-(4-chloro-1-isopropyl-1H-pyrazol-5-yl)-6-hydroxy-4-(4-(1-methyl-4-(trifluoromethyl)-1H-imidazol-2-yl)benzyl)-6,7-dihydropyrazolo[1,5-α]pyrimidin-5(4H)-one] | 100 to 500 | – | < 10 | < 10 | > 25 | > 25 | – | – | –
CCn1cc(C(F)(F)F)nc1-c1ccc(NC2CCCn3nc(-c4c(Cl)cnn4C(C)C)nc32)cc1F (stereo not drawn) [Example 257, 2-(4-chloro-1-isopropyl-1H-pyrazol-5-yl)-N-(4-(1-ethyl-4-(trifluoromethyl)-1H-imidazol-2-yl)-3-fluorophenyl)-5,6,7,8-tetrahydro-[1,2,4]triazolo[1,5-a]pyridin-8-amine] | 100 to 500 | – | < 10 | < 10 | > 25 | > 25 | – | – | –
COc1cccnc1-c1ccc(CN2C(=O)CCn3nc(-c4c(Cl)cnn4C(C)C)cc32)cc1Cl [Example 288] | < 100 | – | ≥ 10 | < 10 | < 25 | < 25 | – | – | –
CC(C)Oc1cccnc1-c1ccc(CN2C(=O)CCn3nc(-c4c(Cl)cnn4C(C)C)cc32)cc1Cl [Example 310] | < 100 | – | ≥ 10 | < 10 | < 25 | < 25 | – | – | –
CC(C)n1ncc(Cl)c1-c1cc2n(n1)CCC(=O)N2Cc1ccc(-c2ncccc2N(C)C)c(Cl)c1 [Example 312] | < 100 | – | ≥ 10 | < 10 | < 25 | < 25 | – | – | –
CCn1cc(C(F)(F)F)nc1-c1ccc(CN2C(=O)CCn3nc(-c4c(C(F)F)cnn4C(C)C)cc32)cc1F [Example 328, 2-(4-(difluoromethyl)-1-isopropyl-1H-pyrazol-5-yl)-4-(4-(1-ethyl-4-(trifluoromethyl)-1H-imidazol-2-yl)-3-fluorobenzyl)-6,7-dihydropyrazolo[1,5-α]pyrimidin-5(4H)-one] | 100 to 500 | – | ≥ 10 | < 10 | > 25 | > 25 | – | – | –
CCn1cc(C(F)(F)F)nc1-c1ccc([C@@H](C)n2c(=O)ccn3nc(-c4c(OC)ncnc4C4CC4)nc23)cc1F [Example 341, (R)-2-(4-cyclopropyl-6-methoxypyrimidin-5-yl)-4-(1-(4-(1-ethyl-4-(trifluoromethyl)-1H-imidazol-2-yl)-3-fluorophenyl)ethyl)-[1,2,4]triazolo[1,5-a]pyrimidin-5(4H)-one] | < 100 | – | ≥ 10 | ≥ 10 | > 25 | > 25 | – | – | –
CCn1cc(C(F)(F)F)nc1-c1ccc([C@H](C)n2c(=O)ccn3nc(-c4c(OC)ncnc4C4CC4)nc23)cc1F [Example 342, (S)-2-(4-cyclopropyl-6-methoxypyrimidin-5-yl)-4-(1-(4-(1-ethyl-4-(trifluoromethyl)-1H-imidazol-2-yl)-3-fluorophenyl)ethyl)-[1,2,4]triazolo[1,5-a]pyrimidin-5(4H)-one] | < 100 | – | ≥ 10 | ≥ 10 | > 25 | > 25 | – | – | –
